Assay results reported in patent US11406642B2, “DNP and DNP prodrug treatment of neuromuscular, neurodegenerative, autoimmune, developmental, traumatic brain injury, concussion, dry eye disease, hearing loss and/or metabolic diseases” (priority 2016, dated 2022).
Read-outs that look alike come from different tables or passages of the source.

Assay: Plasma pharmacokinetics of 2,4-DNP, i.v. and oral
Format: in vivo, Sprague-Dawley male rats
Description: All procedures that involved the use of rats were conducted in accordance with the guidelines set forth by the University of Arkansas for Medical Sciences (UAMS) Institutional Animal Care and Use Committee established by the National Institutes of Health's Guide for the Care and Use of Laboratory Animals (1996). Male Sprague-Dawley rats weighing 250-300 grams were housed three per cage with ad libitum access to food and water in the Division of Laboratory Animal Resources, UAMS. Rats were anesthetized with isofluorane (2-5%)/oxygen (1.5-2.0 L/min) and surgically implanted with cannulae in the jugular (i.v. dosing) and femoral (blood sampling) veins. […] Following appropriate evidence of successful recovery from surgery, IV or oral dosing was performed and blood samples (0.15 mL) were collected at 0, 5, 15, 30, 45, 60, 120, 240 and 480 min. Plasma samples were prepared and analysis was run using a LC/MS/MS spectrometry.
2,4-DNP was dissolved in a phosphate-saline buffer solution, pH 7.4 containing 5% DMSO and 20% PEG-400 and filtered through a 0.2-μm filter. For the oral route, rats were gavaged with 5 mg/kg in a total volume of 8 mL/kg from a stock solution containing 0.625/mL of 2,4-DNP. For the i.v. injection, a total volume of 0.8 mL/kg was used at a dose of 1 mg/kg from a stock solution containing 1.25 mg/mL.
Jugular and femoral vein-catheterized Sprague-Dawley male rats (weights 250-300 g) were treated with 2,4-DNP at a single oral dose of 5 mg/kg (n=4) or a single i.v. dose of 1 mg/kg (n=3). For each i.v. and oral experiment, blood samples (0.15 mL) were collected at 0, 5, 15, 30, 45, 60, 120, 240 and 480 min. The withdrawn blood was replaced with heparinized saline (0.15 mL). Blood samples were centrifuged at 10,000 rpm for 10 min at room temperature, and plasma samples were prepared and analysis was run using a sensitive LC/MS/MS spectrometry method (see below).
To isolate the analytes from rat plasma, 50 μL of control or treated plasma fortified with 10 μL of 2,4-DNP-d3 (10 μg/mL) as an internal standard to which 0.3 mL of methanol followed by 0.3 mL of acetonitrile was added. The mixture was vortex-mixed for 30 s and centrifuged for 10 min at 10,000 rpm at room temperature. The supernatant was transferred into 5 mL glass tubes and evaporated to dryness at 37° C. under nitrogen gas. The pellet was reconstituted with 50 μL of acetonitrile, vortex-mixed for 30 sec, followed by sonication for 1 min. Following centrifugation at 1000 rpm for 10 min at room temperature, 5 μL of the supernatant was then injected onto the column, and analytes were quantified by a LC/MS/MS spectrometry.
1—Plasma concentrations of 2,4-DNP after a single i.v. injection of 2,4-DNP of 1 mg/kg or 5 mg/kg oral administration; 2—Plasma concentrations of II-38 and 2,4-DNP-released from II-38 after an i.v. injection 1.6 mg/kg of II-38 eq. to 1 mg/kg of 2,4-DNP or an oral dose of 8, 40 and 80 mg/kg of II-38 eq. to 5, 25 and 50 mg/kg of 2,4-DNP, respectively. The mass spectrometer was an Agilent quadrupole mass spectrometer operated in the multiple reaction monitoring (MRM) mode. 2,4-DNP-d3 was used as an internal standard. 2,4-DNP, II-38 and 2,4-DNP-d3 were separated using an Alltima C18 column, 5 μm, 3.2×150 mm (Grace Discovery Sciences, IL, USA) equipped with a guard column: Alltima C18, 5 μm, 4.6×7.5 mm (Grace Discovery Sciences, IL, USA). The mobile phase consists of water with 0.005% formic acid as solvent A and acetonitrile with 0.005% formic acid as solvent B. For analysis of 2,4-DNP, II-38 and 2,4-DNP-d3 compounds, the separation was achieved using a gradient of 10 to 90% solvent B in 3.5 min, which was maintained at 90% B for the next 3.30 min and then equilibrated back to the initial conditions over 3.20 min. The flow rate was 0.8 mL/min with a column temperature of 30° C. The sample injection volume was 5 μL. […]

[1] = 2,4-DNP single oral dose 5 mg/kg, n = 4, 5 mg/kg
[2] = 2,4-DNP single oral dose 5 mg/kg, n = 4, listed as DNP, 5 mg/kg

O=[N+]([O-])c1ccc(O)c([N+](=O)[O-])c1 [2,4-DNP, 2,4-dinitrophenol]
AUC [1]: 13288.0 ± 1634.1 µg·min/mL
t1/2 [1]: 2.272 ± 0.182 h
AUC [2]: 13288 µg·min/mL
Cmax [2]: 50 µg/mL
Tmax [2]: 0.633 h
t1/2 [2]: 2.27 h
half-life (male, Sprague-Dawley, rat, plasma, iv, 1 mg/kg, 2,4-DNP single i.v. dose 1 mg/kg, n = 3): 1.5 ± 0.165 h
Cmax (male, Sprague-Dawley, rat, plasma, iv, 1 mg/kg, 2,4-DNP single i.v. dose 1 mg/kg, n = 3, read-out: Cmax): 11.5 ± 6.2 µg/mL
clearance (male, Sprague-Dawley, rat, plasma, iv, 2,4-DNP single i.v. dose 1 mg/kg, n = 3): 1.2 ± 0.6 mL/min/kg
AUC (male, Sprague-Dawley, rat, plasma, iv, 2,4-DNP single i.v. dose 1 mg/kg, n = 3, read-out: AUC (converted)): 1350 µg·min/mL
Vd (male, Sprague-Dawley, rat, plasma, iv, 2,4-DNP single i.v. dose 1 mg/kg, n = 3, read-out: Vss): 0.161 ± 0.135 L/kg
half-life (male, Sprague-Dawley, rat, plasma, po, 5 mg/kg, 2,4-DNP single oral dose 5 mg/kg, n = 4): 2.27 ± 0.182 h
Cmax (male, Sprague-Dawley, rat, plasma, po, 5 mg/kg, 2,4-DNP single oral dose 5 mg/kg, n = 4, read-out: Cmax): 50.1 ± 7.4 µg/mL
Tmax (male, Sprague-Dawley, rat, plasma, po, 5 mg/kg, 2,4-DNP single oral dose 5 mg/kg, n = 4, read-out: tmax (converted)): 0.625 h
bioavailability (male, Sprague-Dawley, rat, plasma, 2,4-DNP single oral dose 5 mg/kg, n = 4): 65.8 ± 11.4%
AUC (male, Sprague-Dawley, rat, plasma, 2,4-DNP single oral dose 5 mg/kg, n = 4, read-out: AUC (converted)): 13300 µg·min/mL
